{"source": "patent US8309543B2", "about": "(priority 2003, dated 2012)", "origin": "cited, not measured here", "key": {"NaV1.3": {"target": "NaV1.3 (Homo sapiens, UniProt Q9NY46)", "sequence (Q9NY46 whole entry, looked up)": "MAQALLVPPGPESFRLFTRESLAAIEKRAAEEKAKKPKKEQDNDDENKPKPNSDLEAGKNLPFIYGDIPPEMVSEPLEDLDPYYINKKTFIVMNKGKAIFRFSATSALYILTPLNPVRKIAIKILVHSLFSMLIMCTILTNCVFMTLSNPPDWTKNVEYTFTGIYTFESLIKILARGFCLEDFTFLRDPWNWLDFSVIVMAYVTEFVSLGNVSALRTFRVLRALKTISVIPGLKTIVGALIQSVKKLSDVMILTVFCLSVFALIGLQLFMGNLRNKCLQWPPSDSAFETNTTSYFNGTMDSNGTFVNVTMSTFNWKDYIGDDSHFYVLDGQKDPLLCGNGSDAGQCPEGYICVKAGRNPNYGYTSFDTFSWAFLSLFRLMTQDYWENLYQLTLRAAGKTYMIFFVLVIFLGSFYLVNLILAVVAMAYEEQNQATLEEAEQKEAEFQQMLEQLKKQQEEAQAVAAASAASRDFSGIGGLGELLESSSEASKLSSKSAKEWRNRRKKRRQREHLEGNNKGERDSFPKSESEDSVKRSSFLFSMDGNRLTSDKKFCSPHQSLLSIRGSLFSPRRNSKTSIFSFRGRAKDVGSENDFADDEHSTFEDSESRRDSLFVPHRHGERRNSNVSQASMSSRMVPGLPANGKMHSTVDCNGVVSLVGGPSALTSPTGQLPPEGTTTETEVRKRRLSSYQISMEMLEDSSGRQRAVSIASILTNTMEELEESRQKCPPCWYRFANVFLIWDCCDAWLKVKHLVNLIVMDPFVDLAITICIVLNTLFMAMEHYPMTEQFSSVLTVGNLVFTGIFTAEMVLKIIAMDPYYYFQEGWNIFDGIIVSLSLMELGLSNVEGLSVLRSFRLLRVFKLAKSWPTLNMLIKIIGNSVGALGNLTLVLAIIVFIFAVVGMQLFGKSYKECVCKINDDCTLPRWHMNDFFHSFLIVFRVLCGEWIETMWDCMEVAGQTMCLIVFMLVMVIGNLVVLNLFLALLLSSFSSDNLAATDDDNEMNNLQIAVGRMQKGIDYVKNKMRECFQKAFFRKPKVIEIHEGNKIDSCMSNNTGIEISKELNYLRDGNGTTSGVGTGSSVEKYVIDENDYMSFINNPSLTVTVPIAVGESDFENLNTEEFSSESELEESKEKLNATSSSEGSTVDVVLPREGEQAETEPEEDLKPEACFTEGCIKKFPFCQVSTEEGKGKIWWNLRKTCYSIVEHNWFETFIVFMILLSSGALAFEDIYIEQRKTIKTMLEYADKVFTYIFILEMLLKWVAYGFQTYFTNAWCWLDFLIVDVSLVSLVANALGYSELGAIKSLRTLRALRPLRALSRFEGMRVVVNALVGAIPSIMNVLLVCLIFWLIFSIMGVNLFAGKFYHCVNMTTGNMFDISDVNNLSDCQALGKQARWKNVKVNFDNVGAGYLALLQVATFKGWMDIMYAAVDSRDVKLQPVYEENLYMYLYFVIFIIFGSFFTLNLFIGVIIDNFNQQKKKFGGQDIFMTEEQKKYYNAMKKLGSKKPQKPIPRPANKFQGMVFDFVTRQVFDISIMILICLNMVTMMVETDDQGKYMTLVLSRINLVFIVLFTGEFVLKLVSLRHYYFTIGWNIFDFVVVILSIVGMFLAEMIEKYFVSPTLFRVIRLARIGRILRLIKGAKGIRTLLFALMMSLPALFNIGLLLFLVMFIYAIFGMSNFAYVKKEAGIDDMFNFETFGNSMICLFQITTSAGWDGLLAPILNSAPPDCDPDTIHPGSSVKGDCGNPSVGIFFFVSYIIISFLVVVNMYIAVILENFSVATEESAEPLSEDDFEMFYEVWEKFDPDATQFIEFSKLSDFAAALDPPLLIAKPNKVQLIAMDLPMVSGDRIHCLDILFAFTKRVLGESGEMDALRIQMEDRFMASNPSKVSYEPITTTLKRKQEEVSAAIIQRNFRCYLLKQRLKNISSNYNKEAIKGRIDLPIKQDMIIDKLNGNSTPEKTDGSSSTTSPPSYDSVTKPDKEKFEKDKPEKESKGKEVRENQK", "settings": "read-out: TTX IC50"}, "NaV1.8": {"target": "NaV1.8 (Homo sapiens, UniProt Q9Y5Y9)", "sequence (Q9Y5Y9 whole entry, looked up)": "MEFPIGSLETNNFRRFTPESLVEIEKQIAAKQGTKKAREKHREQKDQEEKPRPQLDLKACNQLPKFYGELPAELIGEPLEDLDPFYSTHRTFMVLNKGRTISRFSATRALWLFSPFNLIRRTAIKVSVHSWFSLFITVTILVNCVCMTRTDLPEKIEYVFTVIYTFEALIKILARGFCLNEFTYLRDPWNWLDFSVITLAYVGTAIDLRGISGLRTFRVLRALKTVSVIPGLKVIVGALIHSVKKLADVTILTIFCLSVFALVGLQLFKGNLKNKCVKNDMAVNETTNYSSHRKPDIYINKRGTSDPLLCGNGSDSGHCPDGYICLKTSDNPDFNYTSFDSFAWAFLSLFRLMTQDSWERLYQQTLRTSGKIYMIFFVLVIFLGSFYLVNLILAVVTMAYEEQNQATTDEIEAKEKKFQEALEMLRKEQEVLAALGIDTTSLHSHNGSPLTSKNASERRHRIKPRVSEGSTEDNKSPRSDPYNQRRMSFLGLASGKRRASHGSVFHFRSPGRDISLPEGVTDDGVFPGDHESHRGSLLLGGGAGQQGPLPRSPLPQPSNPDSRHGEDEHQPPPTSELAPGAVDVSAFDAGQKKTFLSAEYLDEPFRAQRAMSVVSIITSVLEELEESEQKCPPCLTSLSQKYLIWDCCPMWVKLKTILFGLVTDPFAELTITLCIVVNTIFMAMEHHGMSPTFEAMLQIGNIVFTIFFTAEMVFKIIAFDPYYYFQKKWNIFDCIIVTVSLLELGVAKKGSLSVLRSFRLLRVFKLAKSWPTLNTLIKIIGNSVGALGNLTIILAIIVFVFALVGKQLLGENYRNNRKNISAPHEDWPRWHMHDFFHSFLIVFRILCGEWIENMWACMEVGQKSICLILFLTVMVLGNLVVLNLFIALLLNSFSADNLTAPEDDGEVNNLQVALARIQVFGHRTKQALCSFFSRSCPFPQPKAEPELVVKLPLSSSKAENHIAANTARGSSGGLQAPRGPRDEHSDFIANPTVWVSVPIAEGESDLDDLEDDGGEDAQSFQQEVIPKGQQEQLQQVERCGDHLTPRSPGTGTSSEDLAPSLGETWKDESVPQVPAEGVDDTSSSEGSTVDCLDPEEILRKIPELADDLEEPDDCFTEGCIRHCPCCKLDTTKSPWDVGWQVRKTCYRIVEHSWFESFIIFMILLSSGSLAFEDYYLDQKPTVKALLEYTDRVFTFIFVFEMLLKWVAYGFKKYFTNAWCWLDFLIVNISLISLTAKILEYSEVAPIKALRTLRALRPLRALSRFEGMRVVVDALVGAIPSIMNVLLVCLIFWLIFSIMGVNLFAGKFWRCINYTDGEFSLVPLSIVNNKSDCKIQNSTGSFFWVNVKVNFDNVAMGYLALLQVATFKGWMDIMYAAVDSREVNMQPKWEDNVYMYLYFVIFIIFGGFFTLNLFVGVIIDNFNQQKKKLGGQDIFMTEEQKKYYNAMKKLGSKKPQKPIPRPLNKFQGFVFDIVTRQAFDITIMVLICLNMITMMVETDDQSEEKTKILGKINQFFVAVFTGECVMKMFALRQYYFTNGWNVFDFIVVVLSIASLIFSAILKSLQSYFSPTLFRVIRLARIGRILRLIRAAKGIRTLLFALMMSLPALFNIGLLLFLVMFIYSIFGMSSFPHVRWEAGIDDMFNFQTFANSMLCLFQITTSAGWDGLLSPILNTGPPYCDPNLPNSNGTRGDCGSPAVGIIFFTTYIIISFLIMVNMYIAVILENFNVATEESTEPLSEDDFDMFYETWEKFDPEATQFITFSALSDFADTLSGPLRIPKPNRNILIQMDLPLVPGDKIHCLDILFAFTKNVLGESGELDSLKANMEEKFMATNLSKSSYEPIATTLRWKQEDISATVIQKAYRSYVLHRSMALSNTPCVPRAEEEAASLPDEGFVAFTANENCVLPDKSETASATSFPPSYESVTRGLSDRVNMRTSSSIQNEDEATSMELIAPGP", "settings": "read-out: TTX IC50"}, "[1]": {"settings": "in vivo"}}, "data": [{"smiles": "NC1=N[C@H](O)[C@H]2[C@H]3O[C@]4(O)O[C@@H]([C@@H](O)[C@@]2(N1)[C@@H]4O)[C@]3(O)CO", "note": "[TTX, tetrodotoxin]", "values": [{"measurement": "IC50", "setting": "NaV1.3", "result": 0.015, "unit": "µM"}, {"measurement": "IC50", "setting": "NaV1.8", "result": "> 50", "unit": "µM"}]}, {"smiles": "NCC1(CC(=O)O)CCCCC1", "note": "[Gabapentin]", "values": [{"measurement": "share of patients in which the drug works", "setting": "[1]", "result": 60, "unit": "%"}]}]}
